# In ChEMBL document CHEMBL3885861, “Open TG-GATES”:
# Species on record: Rattus norvegicus
# Experiment: Open TG-GATES - Regimen: Daily Repeat
# Type: toxicity, organism-based, Sprague-Dawley
# Design: regimen Daily Repeat, gender Male, age 6 weeks
# Settings: in vivo, po, route gavage; for APTT / Bas / Eos / Fbg / Ht / Lym / MCH / MCHC / MCV / Mono / Neu / PT / Plat / RBC / Ret / WBC / Hb: tissue Blood; for KIDNEY_L / KIDNEY_R / KIDNEY_TOTAL: tissue Kidney; for LIVER: tissue Liver; for ALP / AST / BUN / CRE / Ca / Cl / DBIL / GLC / IP / LDH / Na / PL / RALB / TBIL / TC / TG / TP / gamma-GTP: tissue Plasma
# [1] = 0 mg/kg, 72 h, dose level Control, time 3 day
# [2] = 0 mg/kg, […], dose level Control, time 7 day
# [3] = 0 mg/kg, […], dose level Control, time 14 day
# [4] = 0 mg/kg, […], dose level Control, time 28 day
# [5] = 10 mg/kg, 72 h, dose level Low, time 3 day
# [6] = 10 mg/kg, […], dose level Low, time 7 day
# [7] = 10 mg/kg, […], dose level Low, time 14 day
# [8] = 10 mg/kg, […], dose level Low, time 28 day
# [9] = 30 mg/kg, 72 h, dose level Middle, time 3 day
smiles,measurement,setting,value
CC(=O)N1CCN(c2ccc(OCC3COC(Cn4ccnc4)(c4ccc(Cl)cc4Cl)O3)cc2)CC1 (configuration not stated) [KETOCONAZOLE],TERMINAL_BW,[1],231 g
same,APTT,[1],20.9 s
same,Bas,[1],0%
same,Eos,[1],0.8%
same,Fbg,[1],294.6 mg/dL
same,Ht,[1],38.3%
same,Lym,[1],82%
same,MCH,[1],21.7 pg
same,MCHC,[1],34.3%
same,MCV,[1],63.3 fL
same,Mono,[1],2.2%
same,Neu,[1],14.2%
same,PT,[1],16.5 s
same,Plat,[1],118.7 x10_4/uL
same,RBC,[1],604.8 x10_4/ul
same,Ret,[1],6.5%
same,WBC,[1],106.4 x10_2/uL
same,KIDNEY_L,[1],1.1 g
same,KIDNEY_R,[1],1.1 g
same,KIDNEY_TOTAL,[1],2.1 g
same,LIVER,[1],10.8 g
same,ALP,[1],1650.6 IU/L
same,AST,[1],68 IU/L
same,BUN,[1],18.6 mg/dL
same,CRE,[1],0.2 mg/dL
same,Ca,[1],10.8 mg/dL
same,Cl,[1],106.2 meq/L
same,DBIL,[1],0 mg/dL
same,GLC,[1],184.2 mg/dL
same,IP,[1],5.9 mg/dL
same,LDH,[1],222.4 IU/L
same,Na,[1],140.2 meq/L
same,PL,[1],142.6 mg/dL
same,RALB,[1],3 g/dL
same,TBIL,[1],0.012 mg/dL
same,TC,[1],71 mg/dL
same,TG,[1],85.2 mg/dL
same,TP,[1],5.6 g/dL
same,gamma-GTP,[1],1.4 IU/L
same,TERMINAL_BW,[2],269.3 g
same,TERMINAL_BW,[3],301.1 g
same,TERMINAL_BW,[4],376.7 g
same,APTT,[2],22.6 s
same,Bas,[2],0%
same,Eos,[2],1%
same,Fbg,[2],301.6 mg/dL
same,Hb,[2],13.6 g/dL
same,Ht,[2],40.1%
same,Lym,[2],78.4%
same,MCH,[2],21.1 pg
same,MCHC,[2],34%
same,Mono,[2],2%
same,Neu,[2],17.8%
same,PT,[2],16.1 s
same,Plat,[2],91.9 x10_4/uL
same,RBC,[2],645.4 x10_4/ul
same,Ret,[2],5.5%
same,WBC,[2],94.3 x10_2/uL
same,APTT,[3],22.2 s
same,Bas,[3],0%
same,Eos,[3],0.8%
same,Fbg,[3],298 mg/dL
same,Hb,[3],14 g/dL
same,Ht,[3],40.9%
same,Lym,[3],81.4%
same,MCH,[3],20.5 pg
same,MCHC,[3],34.3%
same,MCV,[3],59.8 fL
same,Mono,[3],1.6%
same,Neu,[3],15.4%
same,PT,[3],16.1 s
same,Plat,[3],113.5 x10_4/uL
same,RBC,[3],685 x10_4/ul
same,Ret,[3],4.1%
same,WBC,[3],110.9 x10_2/uL
same,Bas,[4],0%
same,Eos,[4],1%
same,Fbg,[4],291.4 mg/dL
same,Hb,[4],14.9 g/dL
same,Ht,[4],43.4%
same,Lym,[4],83.8%
same,MCH,[4],19.1 pg
same,MCHC,[4],34.3%
same,MCV,[4],55.8 fL
same,Mono,[4],1.6%
same,Neu,[4],11.8%
same,PT,[4],17 s
same,Plat,[4],107.7 x10_4/uL
same,RBC,[4],779.8 x10_4/ul
same,Ret,[4],2.5%
same,WBC,[4],126.2 x10_2/uL
same,KIDNEY_L,[2],1.2 g
same,KIDNEY_R,[2],1.2 g
same,KIDNEY_TOTAL,[2],2.4 g
same,KIDNEY_L,[3],1.1 g
same,KIDNEY_R,[3],1.2 g
same,KIDNEY_TOTAL,[3],2.3 g
same,KIDNEY_L,[4],1.3 g
same,KIDNEY_R,[4],1.4 g
same,KIDNEY_TOTAL,[4],2.7 g
same,LIVER,[2],12.2 g
same,LIVER,[4],15.3 g
same,ALP,[2],1766.8 IU/L
same,AST,[2],69.2 IU/L
same,BUN,[2],19 mg/dL
same,CRE,[2],0.2 mg/dL
same,Ca,[2],10.8 mg/dL
same,Cl,[2],106.4 meq/L
same,DBIL,[2],0 mg/dL
same,GLC,[2],182.8 mg/dL
same,IP,[2],6.7 mg/dL
same,LDH,[2],176.2 IU/L
same,Na,[2],141.8 meq/L
same,PL,[2],156.8 mg/dL
same,RALB,[2],3.2 g/dL
same,TBIL,[2],0.002 mg/dL
same,TC,[2],80.6 mg/dL
same,TG,[2],102.8 mg/dL
same,TP,[2],5.8 g/dL
same,gamma-GTP,[2],1.2 IU/L
same,ALP,[3],1657 IU/L
same,AST,[3],71.2 IU/L
same,BUN,[3],19 mg/dL
same,CRE,[3],0.2 mg/dL
same,Ca,[3],10.3 mg/dL
same,Cl,[3],107.2 meq/L
same,DBIL,[3],0 mg/dL
same,GLC,[3],178.4 mg/dL
same,IP,[3],6.4 mg/dL
same,LDH,[3],207.6 IU/L
same,Na,[3],142.4 meq/L
same,PL,[3],167.6 mg/dL
same,RALB,[3],3 g/dL
same,TBIL,[3],0.002 mg/dL
same,TG,[3],140.8 mg/dL
same,TP,[3],5.8 g/dL
same,gamma-GTP,[3],1 IU/L
same,ALP,[4],1167.6 IU/L
same,AST,[4],73.6 IU/L
same,BUN,[4],19.6 mg/dL
same,CRE,[4],0.2 mg/dL
same,Ca,[4],10.3 mg/dL
same,Cl,[4],106.8 meq/L
same,DBIL,[4],0 mg/dL
same,GLC,[4],190.2 mg/dL
same,IP,[4],5.5 mg/dL
same,LDH,[4],168.4 IU/L
same,Na,[4],141.8 meq/L
same,PL,[4],144.4 mg/dL
same,RALB,[4],3.1 g/dL
same,TBIL,[4],0.016 mg/dL
same,TC,[4],66 mg/dL
same,TG,[4],153.2 mg/dL
same,TP,[4],6 g/dL
same,gamma-GTP,[4],1.2 IU/L
same,TERMINAL_BW,[5],236.3 g
same,APTT,[5],19.5 s
same,Bas,[5],0%
same,Eos,[5],0.8%
same,Fbg,[5],308.2 mg/dL
same,Hb,[5],12.9 g/dL
same,Ht,[5],37.7%
same,Lym,[5],82.6%
same,MCH,[5],21.8 pg
same,MCV,[5],64 fL
same,Mono,[5],2%
same,Neu,[5],13.6%
same,PT,[5],16.3 s
same,Plat,[5],122.8 x10_4/uL
same,RBC,[5],589.4 x10_4/ul
same,Ret,[5],6.6%
same,WBC,[5],82 x10_2/uL
same,KIDNEY_L,[5],1 g
same,KIDNEY_R,[5],1 g
same,KIDNEY_TOTAL,[5],2.1 g
same,LIVER,[5],11.3 g
same,ALP,[5],1629.2 IU/L
same,AST,[5],75 IU/L
same,BUN,[5],18.2 mg/dL
same,CRE,[5],0.2 mg/dL
same,Ca,[5],11 mg/dL
same,Cl,[5],106.6 meq/L
same,DBIL,[5],0 mg/dL
same,GLC,[5],184.8 mg/dL
same,IP,[5],6.6 mg/dL
same,LDH,[5],226 IU/L
same,Na,[5],140.8 meq/L
same,PL,[5],152.6 mg/dL
same,RALB,[5],3 g/dL
same,TBIL,[5],0.006 mg/dL
same,TC,[5],78 mg/dL
same,TG,[5],100.6 mg/dL
same,TP,[5],5.7 g/dL
same,gamma-GTP,[5],1 IU/L
same,TERMINAL_BW,[6],260.1 g
same,TERMINAL_BW,[7],306.4 g
same,TERMINAL_BW,[8],374.4 g
same,APTT,[6],21.2 s
same,Bas,[6],0%
same,Eos,[6],1.2%
same,Fbg,[6],311 mg/dL
same,Hb,[6],13.6 g/dL
same,Ht,[6],40.3%
same,Lym,[6],80%
same,MCH,[6],21 pg
same,MCV,[6],62.2 fL
same,Mono,[6],2.4%
same,Neu,[6],15.6%
same,PT,[6],16.2 s
same,Plat,[6],111.8 x10_4/uL
same,RBC,[6],648.6 x10_4/ul
same,Ret,[6],5.4%
same,WBC,[6],117 x10_2/uL
same,APTT,[7],21.3 s
same,Bas,[7],0%
same,Eos,[7],0.8%
same,Fbg,[7],308.2 mg/dL
same,Hb,[7],13.6 g/dL
same,Ht,[7],40.2%
same,Lym,[7],81.6%
same,MCH,[7],20.3 pg
same,MCHC,[7],33.8%
same,MCV,[7],60.1 fL
same,Mono,[7],1.2%
same,Neu,[7],14.6%
same,PT,[7],15.9 s
same,Plat,[7],118 x10_4/uL
same,RBC,[7],669.2 x10_4/ul
same,Ret,[7],4.4%
same,WBC,[7],116.4 x10_2/uL
same,APTT,[8],23.8 s
same,Bas,[8],0%
same,Eos,[8],1%
same,Fbg,[8],308.8 mg/dL
same,Hb,[8],14.8 g/dL
same,Ht,[8],43.5%
same,Lym,[8],80.8%
same,MCV,[8],56.9 fL
same,Mono,[8],1.8%
same,Neu,[8],15.2%
same,PT,[8],16.8 s
same,Plat,[8],108.8 x10_4/uL
same,RBC,[8],764.6 x10_4/ul
same,Ret,[8],2.6%
same,WBC,[8],109.3 x10_2/uL
same,KIDNEY_L,[6],1.1 g
same,KIDNEY_R,[6],1.1 g
same,KIDNEY_TOTAL,[6],2.1 g
same,KIDNEY_L,[7],1.3 g
same,KIDNEY_R,[7],1.3 g
same,KIDNEY_TOTAL,[7],2.5 g
same,KIDNEY_L,[8],1.4 g
same,KIDNEY_R,[8],1.4 g
same,KIDNEY_TOTAL,[8],2.8 g
same,LIVER,[6],12.1 g
same,LIVER,[7],13.7 g
same,LIVER,[8],15.6 g
same,ALP,[6],1544.4 IU/L
same,AST,[6],68.4 IU/L
same,BUN,[6],19 mg/dL
same,CRE,[6],0.2 mg/dL
same,Ca,[6],10.6 mg/dL
same,Cl,[6],107 meq/L
same,DBIL,[6],0 mg/dL
same,GLC,[6],193 mg/dL
same,IP,[6],6.9 mg/dL
same,LDH,[6],228.6 IU/L
same,Na,[6],142 meq/L
same,PL,[6],144 mg/dL
same,RALB,[6],3 g/dL
same,TBIL,[6],0.004 mg/dL
same,TC,[6],71.6 mg/dL
same,TG,[6],120.2 mg/dL
same,TP,[6],5.7 g/dL
same,gamma-GTP,[6],1.2 IU/L
same,ALP,[7],1416.2 IU/L
same,AST,[7],67.6 IU/L
same,BUN,[7],17.6 mg/dL
same,CRE,[7],0.2 mg/dL
same,Ca,[7],10.6 mg/dL
same,Cl,[7],107 meq/L
same,DBIL,[7],0 mg/dL
same,GLC,[7],182.2 mg/dL
same,IP,[7],6.4 mg/dL
same,LDH,[7],187.6 IU/L
same,Na,[7],143 meq/L
same,PL,[7],155.2 mg/dL
same,RALB,[7],3.1 g/dL
same,TBIL,[7],0.004 mg/dL
same,TC,[7],77.8 mg/dL
same,TP,[7],5.8 g/dL
same,gamma-GTP,[7],1 IU/L
same,ALP,[8],1283.8 IU/L
same,AST,[8],59.2 IU/L
same,BUN,[8],17.8 mg/dL
same,CRE,[8],0.2 mg/dL
same,Ca,[8],10.4 mg/dL
same,Cl,[8],107.6 meq/L
same,DBIL,[8],0 mg/dL
same,GLC,[8],182.4 mg/dL
same,IP,[8],5.4 mg/dL
same,LDH,[8],138.4 IU/L
same,Na,[8],143 meq/L
same,PL,[8],140.6 mg/dL
same,RALB,[8],3.2 g/dL
same,TBIL,[8],0.004 mg/dL
same,TC,[8],69.8 mg/dL
same,TG,[8],121.2 mg/dL
same,TP,[8],6.1 g/dL
same,gamma-GTP,[8],1.2 IU/L
same,TERMINAL_BW,[9],228.5 g
same,APTT,[9],20.7 s
